# Test system: IL8 secretion from TNFα induced Caco-2 cells
# Assay: IL8 secretion from TNFα induced Caco-2 cells (HTRF)
# Assay type: cell-based, Human
# Conditions: 24 h incubation; combinations: CBD 30 μM with NaB or NaP 20 mM
# Description: Cell lines were cultured according to standard mammalian tissue culture protocols and sterile technique. Human colon epithelial cells, Caco-2, were cultured in high glucose Dulbecco's Modified Eagle Medium (DMEM). Human monocytes THP-1 cells line were cultured in RPMI medium 1640. Both media were supplemented with 10% fetal bovine serum (FBS), 2 mM 1-glutamine and 0.1% penicillin-streptomycin solution in a humidified atmosphere (5% CO2, 95% air, 37° C.) in a 75 cm2 cell culture treated flask (Eppendorf). All the media and supplements were obtained from Biological Industries.
# Interleukin 8 (IL 8) detection and quantification was performed with Homogeneous Time-Resolved fluorescence (HTRF).
# Caco-2 cells were seeded in a 96 micro well delta surface plates (Eppendorf) at a starting confluence of 2×10^4 cells/well and were incubated for 21 days. Growth medium was replaced every 2-3 days.
# After 22 days, the medium was replaced with medium containing both TNFα (as a damage inducer) and the tested sample (as treatment) using specific media containing 5% FBS. After 24 hours incubation, the supernatant was collected and stored for cytokine analysis. The supernatant was diluted up to 5 times in working media to avoid the hook effect.
# HTRF assays were performed in white 96-well plate (CisBio Bioassays) with a total working volume of 20 μL. All HTRF reagents were purchased from CisBio Bioassays and reconstituted according to the manufacturer protocols. For each assay 16 μL of diluted supernatants samples were incubate with 4 μL mixed solution containing donor and acceptor antibodies.
# After 2 h incubation HTRF signals were measured using SPARK multimode microplate reader with an excitation filter at 320 nm and fluorescence wavelength measurement at 620 and 665 nm, an integration delay of 60 μs and an integration time of 400 μs. Results were analyzed with a two-wavelength signal ratio: [intensity (665 nm)/intensity (620 nm)]*104. Calculation and analysis of cytokines release was performed according to the manufacturer protocols and using the 4PL 1/Y2 formula in GraphPad Prism software.
row,Compound,IL8 secretion from TNFα induced Caco2 cells (result in words)
1,"C=C(C)[C@@H]1CCC(C)=C[C@H]1c1c(O)cc(CCCCC)cc1O [CBD, 2-[(6R)-3-Methyl-6-prop-1-en-2-yl-1cyclohex-2-envyl]-5pentylbenzene-1,3-diol, reference compound]",didn't exhibit any significant effect
2,"CCCC(=O)[O-].[Na+] [NaB, sodium butyrate]",didn't exhibit any significant effect
3,"CCC(=O)[O-].[Na+] [NaP, sodium propionate]",mild reduction of IL8 secretion

# From patent publication US20240058364A1, “A COMPOSITION FOR USE IN THE TREATMENT OF RECTAL AND/OR INTESTINAL INFLAMMATION” (CANNAMORE BIOTECHS LTD., priority 2020, published 2024)
